The results in this text go back to patent EP0059057A1 (priority 1981, dated 1982).

Where two headings read alike, the source gives them in different places.

One may read the % Inhibition as the relative decrease from the control value, in per cent.

For test [1], the system named is culture filtrate prepared from an enteropathogenic strain of E. coli. The class given is in vivo. As to conditions: infant mice.
For test [2] the test system is unchanged. As to conditions: piglets; for Mean Scour Score ± SEM drug treated: score 0 - 3.
Test [3] deals with Heat stable E. coli enterotoxin from E. coli strain pl6. The note with it: 100 µg/kg.
Where [4] appears, read: 1 mg/kg p.o., 45 mins prior to challenge.
[5] abbreviates: 5 mg/kg p.o., 45 mins prior to challenge.
[6] abbreviates: 10 mg/kg p.o., 45 mins prior to challenge.
Setting [7] is: 20 mg/kg p.o., 45 mins prior to challenge.
Setting [8] is: 100 mg/kg p.o., 45 mins prior to challenge.
Setting [9] is: 1 mg/kg po., duration of test 6 h.
[10] abbreviates: 1 mg/kg po., duration of test 12 h.
Where [11] appears, read: 10 mg/kg po., duration of test 12 h.
Setting [12] is: 2 x 5 mg/kg po., duration of test 12 h.

With `CNCC(O)c1ccc(O)c(O)c1.O=C(O)C(O)C(O)C(=O)O` (stereo not shown) [Adrenaline Bitartrate], the “% Inhibition” value was 37% in test [1] (setting [4]); 36% in test [1] (setting [5]); 58% in test [1] (setting [6]); 70% in test [1] (setting [7]); 96% in test [1] (setting [8]). Moreover, the “% Inhibition of Scour” value is recorded as 11% in test [2] (setting [9]), 16% in test [2] (setting [10]), 98% in test [2] (setting [11]) and 96% in test [2] (setting [12]). Besides, the “Mean Scour Score ± SEM drug treated” value in test [2] (setting [9]) was determined as 2.0 ± 0.2; in test [2] (setting [10]), 1.8 ± 0.1; in test [2] (setting [11]) it was 0 ± 0; in test [2] (setting [12]), 0.1 ± 0.1.
For `CNCC(O)c1ccc(O)c(O)c1` (stereo not shown) [Adrenaline], the “% Inhibition” value in test [1] (0.5 mg/kg p.o., 45 mins prior to challenge) is given as 8%; in test [1] (setting [4]), 18%; in test [1] (setting [5]) it was 54%; in test [1] (setting [6]), 54%; in test [1] (setting [7]), 69%; in test [1] (setting [8]), 101%. For the same molecule, the “Secretion/(ml/30 min) (mean ± SEM [n=10)” value in test [3] (time 0-30 min after toxin (before drug; drug administered 30 min after toxin)) was determined as 31 ± 3 ml/30 min; in test [3] (time 30-60 min after toxin), 10 ± 1 ml/30 min; in test [3] (time 60-90 min after toxin) it was 8 ± 2 ml/30 min; in test [3] (time 90-120 min after toxin) it was 6 ± 2 ml/30 min; in test [3] (time 120-150 min after toxin), 8 ± 3 ml/30 min; in test [3] (time 150-180 min after toxin), 7 ± 2 ml/30 min. Also, the “Secretion/(ml/30 min) (mean ± SEM [n=10)” value in test [3] (time -30-0 min after toxin (before toxin and drug)) is 3 ± 1 ml/30 min.
For the molecule `C[C@H](N)[C@H](O)c1cccc(O)c1` [Metoraminol], in test [1] (200 mg/kg p.o., 45 mins prior to challenge), the “% Inhibition” value was found to be 45%.
Consider `NC[C@H](O)c1ccc(O)c(O)c1` [Noradrenaline], for which the “% Inhibition” value in test [1] (10 mg/kg p.o., in 6mM ascorbate) turned out to be 40%.
